Laboratory results taken from publication PMC9596752, “Investigation of anti-diabetic potential and molecular simulation studies of dihydropyrimidinone derivatives” (Frontiers in Endocrinology, 2022).
Converted amounts (≈) assume the structure as drawn.

Target: α-glucosidase
Experiment: in vitro α-glucosidase inhibition assay, absorbance at […] nm
Format: biochemical, Saccharomyces cerevisiae

O=C1NC2=C(C(=O)N(Cc3ccccc3)C2)C(c2ccc(O)cc2)N1 (stereo not shown) [A, 6-benzyl-4-(4-hydroxyphenyl)-3,4,6,7-tetrahydro-1H-pyrrolo[3,4-d]pyrimidine-2,5-dione]
IC50: 1.02 µg/mL (≈ 3.04 µM)
